Eight compounds from patent US8741932B2, “Imidazopyridine derivatives” (Piramal Enterprises Limited, priority 2009, dated 2014) can be followed below.

One assay relates to A549. Description: Cytotoxicity assay (propidium iodide), A549. The class given is cell-based. The conditions noted are these: Homo sapiens; A549 (C1a, lung); 48 hours.
The subject of another assay is H460. Description: Cytotoxicity assay (propidium iodide), H460. The format is cell-based. Conditions: Homo sapiens, NCI-H460; H460 (C1b, lung); 48 hours.
The next assay relates to A2780. Put plainly: Cytotoxicity assay (propidium iodide), A2780. The class given is cell-based. Conditions: Homo sapiens; A2780 (C3a, ovarian); 48 hours.
The next assay relates to OVCAR 3. Put plainly: Cytotoxicity assay (propidium iodide), OVCAR 3. The format is cell-based. Conditions: Homo sapiens; OVCAR 3 (C3c, ovarian); 48 hours.
A further assay concerns HCT116. Put plainly: Cytotoxicity assay (propidium iodide), HCT116. Conditions: Homo sapiens, HCT-116; HCT116 (C4b, colon); 48 hours. The class given is cell-based.
The subject of assay [1] is IL-6. Description: Human monocyte assay, LPS-stimulated IL-6. Conditions: Monocyte; human monocytes, 1 μg/ml LPS, 5 hours. The format is cell-based. A digest of the protocol: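 Adherent human PBMC-derived monocytes (2×10^4/well) were cultured 48 h, preincubated 30 min with compound or 0.5% DMSO, then stimulated with 1 μg/ml E. coli LPS for 5 h at 37° C. TNF-α and IL-6 in supernatants were measured by ELISA.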

The next assay deals with PC3. Description: Cytotoxicity assay (propidium iodide), PC3. The conditions noted are these: Homo sapiens, PC-3, 48 h, read-out: IC50 cytotoxicity.
For assay [2], the system named is TNF-α. Put plainly: Human monocyte assay, LPS-stimulated TNF-α. The class given is cell-based. The conditions noted are these: human monocytes, 1 μg/ml LPS, 5 hours. On the procedure: The assay was designed as in the reference, Physiol.
Peripheral blood mononuclear cells (hPBMC) were harvested from human blood and suspended in RPMI 1640 culture medium containing 10% FCS, 100 U/mL penicillin and […] streptomycin (assay medium). Monocytes in the hPBMCs were counted using a Coulter Counter following which the cells were resuspended at 2×10^5 monocytes/mL. A cell suspension containing 2×10^4 monocytes was aliquoted per well of a 96-well plate. Subsequently, the hPBMCs were incubated for 4-5 hours at 37° C., 5% CO2 (During the incubation, the monocytes adhered to the bottom of 96-well plastic culture plate). Following the incubation, the non-adherent lymphocytes were washed with assay medium and the adherent monocytes re-fed with assay medium. After a 48-hour incubation period (37° C., 5% CO2), monocytes were pretreated with various concentrations of representative compounds of present invention (refer to table 6 and 7) (prepared in DMSO) or vehicle (0.5% DMSO) for 30 minutes and stimulated with 1 μg/ml LPS (Escherchia coli 0111:B4, Sigma Chemical Co., St. Louis, Mo.). The incubation was continued for 5 hours at 37° C., 5% CO2. Supernatants were harvested, assayed for IL-6 and TNF-α by ELISA as described by the manufacturer (BD Biosciences, USA). Dexamethasone (10 μM) was used as standard for this assay. […] Biological results for both IL-6 and TNFα are indicated in Table 6 and Table 7 respectively.

The test system of assay [3] is IL-6. Put plainly: Synovial tissue assay, IL-6. The class given is cell-based. The conditions noted are these: Homo sapiens; synovial tissue cells from rheumatoid arthritis patients, 16 hours. How it is done:
(§1) The assay was designed as in the reference, Lancet, 2(8657), 244-7, Jul.
(§2) Stock Solution: Compounds of the present invention were dissolved in DMSO to obtain a stock solution of 20 mM.
(§3) Synovial tissue was obtained from rheumatoid arthritis patients undergoing knee replacement surgery. The tissue was minced into small pieces and digested in RPMI medium containing 100 U/ml penicillin-G, 100 μg/ml streptomycin, 50 ng/ml amphotericin B (GIBCO; USA), 1.33 mg/ml collagenase Type I (Worthington Biochemical Corporation, New Jersey), 0.5 μg/ml DNAse Type I (Sigma Aldrich; St. Louis, Mo.) and 8.33 U/ml heparin (Biological E. Limited, India) for 3 hours at 37° C., 5% CO2. The digested tissue was filtered through a membrane (mesh size 70 micron; Sigma Aldrich). Subsequently, the cells were washed 3 times and resuspended in complete medium (RPMI supplemented with 5% FBS and 5% human serum-AB+) at a concentration of 1×10^6 cells/ml. All cell washes in this assay were performed using Rosewall Park Memorial Institute (RPMI)-1640 medium (JRH; Australia). For the experiment, 100 μl of cell suspension was added to the wells of a 96-well culture plate. Following cell plating, 100 μl of the culture medium and 1 μl of various concentrations (0.01, 0.03, 0.1, 0.3, 1, 3, 10, 30 and 100 μM) of the compounds of present invention dissolved in DMSO were added to the cells. The final concentration of DMSO was adjusted to 0.5%. For experimental purposes, 1 μl of […] concentrated solution of the compounds of present invention were dissolved in 200 μl cell suspension to achieve a final concentration of 0.01, 0.03, 0.1, 0.3, 1, 3, 10, 30 and 100 μM. The vehicle (0.5% DMSO) was used as control. 10 μM dexamethasone (Sigma Aldrich) or 1 μM 7-hydroxyfluorinide (7HF) were used as standards for the experiments. The plates were incubated for 16 hours at 37° C., 5% CO2. Subsequently, the supernatants were harvested and stored at −70° C. The amounts of TNF-α, IL-6 and interleukin-8 (IL-8) in the supernatants were assayed using OptiEIA ELISA sets, (BD BioSciences Pharmingen). The protocol followed was as per manufacturers instructions. […] The cytotoxicity of test compounds in synovial cells was assessed by MTS assay. Absorbance was measured at 490 nm. Percent cytotoxicity was calculated by the equation: % Cytotoxicity=(A−B)/A×100 where, A is the absorbance of cells treated with DMSO alone and B is the absorbance of cells treated with the test article.

For assay [4], the system named is TNF-α. Put plainly: Synovial tissue assay, TNF-α. The format is cell-based. The conditions noted are these: Homo sapiens; synovial tissue cells from rheumatoid arthritis patients, 16 hours. How it is done:
as §1, §2, §3

Another assay has as its system IL-8. Description: Synovial tissue assay, IL-8. The class given is cell-based. The conditions noted are these: Homo sapiens; synovial tissue cells from rheumatoid arthritis patients, 16 hours. On the procedure:
as §1, §2, §3

A further assay concerns STAT3. Description: STAT3 bioassay (Hela Stat3-luc, luciferase). The format is cell-based. The conditions noted are these: Homo sapiens, Oncostatin M induction. How it is done: Cells were seeded (Hela Stat3-luc, ATCC P/N 30-2002) in a white 96 well plate (Nunc cat.no.136101) at a density of 20,000cells/well in 179 μl volume per well (DMEM from Sigma containing 10% FCS). The plate was incubated for 24 hours at 37° C./5% CO2. The cells (wells in triplicates) were then treated with 1 μl/well of 200× stock of the desired compound concentration prepared in 100% DMSO. Curcumin was used as a standard or positive control, added 10 μg/ml in triplicate. DMSO was used as medium control (1 μl/well added in triplicates). The plate was incubated at 37° C./5% CO2 for 1 hour. 20 μl/well Oncostatin M (Oncostatin M, Human, Recombinant, E. coli, Cat.No. 496260, 10 μg from Calbiochem) was added to treated wells, induction control (in triplicate) (1000 ng/ml stock prepared in serum free medium to get final concentration 100 ng/ml). The plate was then incubated for 7-8 hours at 37° C./5% CO2 for induction. A typical assay would consist of triplicate of medium control, triplicate of induction control, triplicate of positive/standard control and test compounds at desired concentration in triplicates. For termination Luciferase assay protocol was followed where the culture medium was removed from all the wells.
200 μl well of PBS was added to remove traces of medium and compound. The PBS was discarded. 40 μl/well of 1× lysis buffer was added to all the wells. The plate was incubated at RT for 20 minutes with intermittent shaking. 100 μl/well of LAB reagent was added to all the wells in dark. {LAB reagent for 1 plate=8 ml Luciferase assay buffer (LAB)+1 ml Coenzyme A (Sigma cat no. C3019) (2.1 mg/ml stock in LAB)+530 μL of ATP (Sigma cat.no.A2383) (5.85 mg/ml stock in LAB)+1 ml luciferin reagent (Promega cat no.245355) (2 mg/ml stock in LAB, protect from light)}.
The luminescence was immediately read on polar star. The values were expressed as percentage inhibition, in terms of treated values to that STAT3 (induction control). IC50 values were calculated from graphs using these percentages.

Description for HCT116: (§4) Cells from cell lines as mentioned in the table given below were seeded at a density of 3000 cells/well in a white opaque 96-well plate. Following incubation at 37° C./5% CO2 for a period of 18-24 hours, the cells were treated with various concentrations (stock solution was prepared in DMSO and subsequent dilutions were made in media as per ATCC guidelines) of the representative compounds of present invention (refer table 3) for a period of 48 hours. At the end of treatment, the spent culture medium was discarded, the cells were washed with 1×PBS and 200 μl of 7 μg/ml propidium iodide was added to each well. The plates were frozen at −70° C. for at least 24 hours. For analysis, the plates were brought to RT, allowed to thaw and were read in PolarStar fluorimeter with the fluorescence setting. The percentage of viable cells in the non treated set of wells was considered to be 100 and the percentage viability following treatment was calculated accordingly. IC50 values were calculated from graphs plotted using these percentages.
Description for OVCAR 3: as §4

Consider `Cc1ccc([N+](=O)[O-])cc1S(=O)(=O)N(C)N=Cc1cnc2ccc(-c3cnc4ccccc4c3)cn12` [Example 99, N, 2-Dimethyl-5-nitro-N′-((6-(quinolin-3-yl)imidazo[1,2-a]pyridine-3-yl)methylene)benzenesulfonohydrazide], for which the IC50 in the assay on A549 lay within 10 to 5000 nM; with H460, 10 to 5000 nM; in the assay on A2780, 10 to 5000 nM; with OVCAR 3, 10 to 5000 nM; with HCT116, 10 to 5000 nM; in the assay on IL-6 [1] it was 0.001 to 5 µM. Besides, the IC50 in the assay with PC3 was in the range of 10 to 5000 nM.

For `Cc1ccc(S(=O)(=O)N(C)N=Cc2cnc3ccc(-c4cccnc4)cn23)cc1` [Example 3, N, 4-dimethyl-N′-((6-(pyridine-3-yl)imidazo[1,2-a]pyridine-3-yl)methylene) benzenesulfonohydrazide], the half-inhibitory concentration (IC50) was 10 to 5000 nM in the assay with A549; 10 to 5000 nM in the assay on H460; 10 to 5000 nM in the assay with A2780; 10 to 5000 nM with OVCAR 3; 10 to 5000 nM in the assay on HCT116; not below 5 µM in the assay on IL-6 [1]. The IC50 in the assay with PC3 lay in the range of 10 to 5000 nM.

Consider `COc1ccc(S(=O)(=O)N(C)N=Cc2cnc3ccc(-c4cccnc4)cn23)cc1` [Example 12, 4-Methoxy-N-methyl-N′-((6-(pyridine-3-yl)imidazo[1,2-a]pyridine-3-yl)methylene)benzenesulfonohydrazide], for which the concentration for half-maximal inhibition (IC50) in the assay on A549, in the assay on H460, with A2780, in the assay on OVCAR 3, with HCT116 and in the assay on PC3 was 10 to 5000 nM in each case.

For the compound `Cc1ccc(F)c(S(=O)(=O)N(C)N=Cc2cnc3ccc(-c4cccnc4)cn23)c1` [Example 19, 2-Fluoro-N, 5-dimethyl-N′-((6-(pyridine-3-yl)imidazo[1,2-a]pyridine-3-yl)methylene) benzenesulfonohydrazide], the IC50 lay in the range of 0.001 to 5 µM with IL-6 [1]; 1 to 1000 nM in the assay on TNF-α [2]; 0.3 to 3 µM in the assay on IL-6 [3]; 0.3 to 3 µM in the assay on TNF-α [4]; 0.3 to 3 µM in the assay on IL-8.

Consider `CN(N=Cc1cnc2ccc(-c3cccnc3)cn12)S(=O)(=O)c1cccs1` [Example 29, N-methyl-N′-((6-(pyridine-3-yl)imidazo[1,2-a]pyridine-3-yl)methylene) thiophene-2-sulfonohydrazide], for which the IC50 with A549, with H460, with A2780, with OVCAR 3, in the assay with HCT116 and in the assay on PC3 was 10 to 5000 nM each time.

Consider `CN(N=Cc1cnc2ccc(-c3cccnc3)cn12)S(=O)(=O)c1ccccc1F` [Example 4, 2-Fluoro-N-methyl-N′-((6-(pyridine-3-yl)imidazo[1,2-a]pyridine-3-yl)methylene)benzenesulfonohydrazide], for which the half-maximal inhibitory concentration (IC50) fell in the range of 100 to 5000 nM in the assay with STAT3; 0.001 to 5 µM with IL-6 [1]; 1 to 1000 nM in the assay on TNF-α [2]; 0.01 to 0.3 µM in the assay on IL-6 [3]; 0.01 to 0.3 µM with TNF-α [4]; 0.3 to 3 µM in the assay with IL-8.

Turning to `CN(N=Cc1cnc2ccc(-c3cccnc3)cn12)S(=O)(=O)c1ccc(F)cc1F` [Example 13, 2,4-Difluoro-N-methyl-N′-((6-(pyridine-3-yl)imidazo[1,2-a]pyridine-3-yl)methylene) benzenesulfonohydrazide], the IC50 lay in the range of 5000 to 10000 nM in the assay on STAT3; 0.001 to 5 µM in the assay on IL-6 [1]; 1 to 1000 nM with TNF-α [2]; 0.01 to 0.3 µM in the assay with IL-6 [3]; 0.01 to 0.3 µM in the assay on TNF-α [4]; 0.3 to 3 µM in the assay on IL-8.

As for `CN(/N=C/c1cnc2ccc(-c3cccnc3)cn12)S(=O)(=O)c1cccc(C#N)c1` [Example 10, (E)-3-cyano-N-methyl-N′-((6-(pyridin-3-yl)imidazo[1,2-a]pyridin-3-yl)methylene)benzenesulfonohydrazide], the IC50 was in the range of 10 to 5000 nM with A549; 10 to 5000 nM with H460; 10 to 5000 nM in the assay with A2780; 10 to 5000 nM in the assay with OVCAR 3; 10 to 5000 nM with HCT116; 100 to 5000 nM in the assay with STAT3. Besides, the IC50 with IL-6 [1] lay within 0.001 to 5 µM; in the assay on TNF-α [2], 1 to 1000 nM; in the assay on PC3 it was 10 to 5000 nM.

By IC50 is commonly meant the concentration that gives 50% inhibition.
